Experiments:
MAPK14 (BALB/cJ mice) = assay: In vivo Inhibition of LPS-induced TNF-alpha Production; conditions: dose or concentration not given here
MAPK14 (human) = MAPK14 (human) (UniProt Q16539); assay: In vitro Inhibition of TNF-alpha Production in PBMC Cells
Chain of MAPK14 (human) (Q16539 whole entry, looked up): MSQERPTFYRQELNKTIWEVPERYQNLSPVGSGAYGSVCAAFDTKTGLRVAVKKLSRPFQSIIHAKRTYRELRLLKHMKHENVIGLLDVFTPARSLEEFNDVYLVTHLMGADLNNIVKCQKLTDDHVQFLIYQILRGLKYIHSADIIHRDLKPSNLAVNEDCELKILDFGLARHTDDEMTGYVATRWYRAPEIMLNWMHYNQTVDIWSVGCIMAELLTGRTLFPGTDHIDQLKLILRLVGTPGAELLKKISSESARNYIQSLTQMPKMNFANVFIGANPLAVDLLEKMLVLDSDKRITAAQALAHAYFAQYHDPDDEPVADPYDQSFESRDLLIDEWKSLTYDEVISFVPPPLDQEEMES

| SMILES | inhibition (MAPK14 (BALB/cJ mice)) [%] | IC50 (MAPK14 (human)) [nM] |
| --- | --- | --- |
| COC(=O)c1c(-c2ccc(F)cc2)c(-c2ccncc2)c(N2CCN(S(C)(=O)=O)CC2)n1C | -29 | 5860 |
| COCC#Cc1c(-c2ccc(F)cc2)c(-c2ccncc2)c(C(=O)OC)n1C | -5 | 443 |
| Cn1c(C(=O)OC(C)(C)C)c(-c2ccc(F)cc2)c(-c2ccncc2)c1N1CCNCC1 | 25 | 420 |
| CCOC(=O)c1c(-c2cc(F)cc(F)c2)c(-c2ccncc2)c(N2CCNCC2)n1C | 75 | 93 |
| C[C@H](Nc1nccc(-c2cn(CCN3CCOCC3)cc2-c2ccc(F)cc2)n1)c1ccccc1 | -21 | 4 |
| CN(CCO)Cc1[nH]cc(-c2ccc(F)cc2)c1-c1ccncc1 | -8 | 3 |
| Cn1c(Br)c(-c2ccncc2)c(-c2ccc(F)cc2)c1C(=O)OC(C)(C)C | -7 | 1890 |
| COC(=O)c1c(-c2ccc(F)cc2)c(-c2ccncc2)c(NCCN2CCOCC2)n1C | 44 | 50 |
| CCOC(=O)c1c(-c2ccc(C)cc2)c(-c2ccncc2)c(N2CCNCC2)n1C | 79 | 60 |
| COC(=O)c1c(-c2ccncc2)c(-c2ccc(F)cc2)c(NCCc2ccccc2)n1C | 58 | 1020 |
| COC(=O)c1c(-c2ccc(F)cc2)c(-c2ccncc2)c(NCc2cccc(OC)c2)n1C | 63 | 407 |
| CCCc1c(-c2ccnc(SC)n2)c(-c2ccc(F)cc2)cn1CCCN(C)C | -37 | 148 |
| COC(=O)c1c(-c2ccc(F)cc2)c(-c2ccncc2)c(N2CCc3ccccc3C2)n1C | 32 | 166 |
| COC(=O)c1c(-c2ccc(F)cc2)c(-c2ccncc2)c(N=CN(C)C)n1C | 6 | 5 |
| COC(=O)c1c(-c2ccc(F)cc2)c(-c2ccncc2)c(N2CCC(N)C2)n1C (stereo not given) | 25 | 237 |
| CN(C)C(=O)c1c(-c2ccc(F)cc2)c(-c2ccncc2)cn1C | 33 | 1380 |
| COC(=O)C1CCn2c(NCCN3CCOCC3)c(-c3ccncc3)c(-c3ccc(F)cc3)c2C1=O (stereo not given) | 71 | 77 |
| COC(=O)c1c(-c2ccc(F)cc2)c(-c2ccncc2)c(C2=CCNCC2)n1C | 96 | 72 |
| COC(=O)c1c(-c2ccncc2)c(-c2ccc(F)cc2)cn1C | -56 | 55 |
| Cn1c(Br)c(-c2ccncc2)c(-c2ccc(F)cc2)c1C#N | 22 | 625 |
| CCOC(=O)c1c(-c2cc(F)cc(F)c2)c(-c2ccncc2)cn1C | -31 | 33 |
| Cn1cc(-c2ccncc2)c(-c2ccc(F)cc2)c1CNC(=O)Nc1ccccc1 | 82 | 27 |
| C=CC#Cc1c(-c2ccc(F)cc2)c(-c2ccncc2)c(C(=O)OC)n1C | -20 | 34 |
| COC(=O)c1c(-c2ccc(F)cc2)c(-c2ccncc2)c(N2CCN(C3CCCC3)CC2)n1C | 48.6 | 139 |
| CN(C)CCn1cc(-c2ccncc2)c(-c2ccc(F)cc2)c1CO | 20 | 852 |
| COC(=O)c1c(-c2ccc(F)cc2)c(-c2ccncc2)c(NCCN2CCCC2)n1CCN1CCOCC1 | 23 | 969 |
| Cn1cc(-c2ccncc2)c(-c2ccc(F)cc2)c1-c1cnco1 | 53 | 59 |

| SMILES | inhibition (MAPK14 (BALB/cJ mice)) [%] | IC50 (MAPK14 (human)) [nM] |
| --- | --- | --- |
| CCn1cc(-c2ccncc2)c(-c2ccc(F)cc2)c1C(=O)OC | 53 | 108 |
| CCOC(=O)c1c(-c2cccc(C(F)(F)F)c2)c(-c2ccncc2)c(N2CCNCC2)n1C | 83 | 21 |
| CCOC(=O)c1c(-c2ccc(C)cc2)c(-c2ccncc2)c(Br)n1C | -76 | 736 |
| CN(Cc1ccccc1)Cc1[nH]cc(-c2ccc(F)cc2)c1-c1ccncc1 | 37 | 91 |
| CCCc1c(-c2ccnc(N[C@@H](C)COC)n2)c(-c2ccc(F)cc2)cn1CCN1CCOCC1 | -1 | 1 |
| COC(=O)c1c(-c2ccncc2)c(-c2ccc(F)cc2)c(Br)n1C | -6 | 180 |
| COC(=O)c1c(-c2ccc(F)cc2)c(-c2ccncc2)c(-c2cccc(NC(C)=O)c2)n1C | 59 | 2 |
| OCc1c(-c2ccc(F)cc2)c(-c2ccncc2)cn1CCN1CCOCC1 | -50 | 277 |
| CCOC(=O)c1c(-c2ccc(F)cc2)c(-c2ccncc2)c(N2CCNCC2)n1C | 79 | 16 |
| COC(=O)c1c(-c2ccc(F)cc2)c(-c2ccncc2)c(NC2CCNCC2)n1C | 7 | 315 |
| COC(=O)c1c(-c2ccncc2)c(-c2ccc(F)cc2)c(C#CCCO)n1C | 30 | 894 |
| Fc1ccc(-c2c[nH]c(CNCc3ccncc3)c2-c2ccncc2)cc1 | 47 | 74 |
| CCOC(=O)c1[nH]cc(-c2ccncc2)c1-c1ccc(C)cc1 | -218 | 136 |
| CCOC(=O)c1[nH]cc(-c2ccncc2)c1-c1ccc(F)c(F)c1 | -32 | 560 |
| COC(=O)c1c(-c2ccc(F)cc2)c(-c2ccncc2)c(NCCN(C)C)n1C | -43 | 98 |
| CCOC(=O)c1c(-c2ccc(F)cc2)c(-c2ccncc2)c(CCCN2CCOCC2)n1C | 34 | 756 |
| OCc1[nH]cc(-c2ccc(F)cc2)c1-c1ccncc1 | -72 | 101 |
| COC(=O)c1c(-c2ccncc2)c(-c2ccc(F)cc2)c(C#CCN2CCOCC2)n1C | 47 | 788 |
| Cn1c(C#N)c(-c2ccc(F)cc2)c(-c2ccncc2)c1N1CCNCC1 | 67 | 18 |
| CCNC(=O)c1[nH]cc(-c2ccc(F)cc2)c1-c1ccncc1 | -24 | 209 |
| CCOC(=O)c1[nH]cc(-c2ccncc2)c1-c1ccccc1 | 58 | 149 |
| COC(=O)c1c(-c2ccc(F)cc2)c(-c2ccncc2)c(-c2ccc(N(C)C)cc2)n1C | -22 | 120 |
| CCCc1[nH]cc(-c2ccc(F)cc2)c1-c1ccnc(N[C@@H](C)c2ccccc2)n1 | -19 | 10 |
| COC(=O)c1c(-c2ccc(F)cc2)c(-c2ccncc2)cn1C(=O)OC | -22 | 23 |
| CNC(=O)c1c(-c2ccc(F)cc2)c(-c2ccncc2)c(N2CCNCC2)n1C | -7 | 106 |
| Fc1ccc(-c2cn3c(c2-c2ccncc2)CNCC3)cc1 | 71 | 208 |
| CCC(=O)c1c(-c2ccc(F)cc2)c(-c2ccncc2)c(N2CCNCC2)n1C | 32 | 67 |

| SMILES | inhibition (MAPK14 (BALB/cJ mice)) [%] | IC50 (MAPK14 (human)) [nM] |
| --- | --- | --- |
| Fc1ccc(-c2c[nH]c(CN3CCNCC3)c2-c2ccncc2)cc1 | -41 | 63 |
| CCN1C(=O)c2c(-c3ccncc3)c(-c3ccc(F)cc3)cn2C1=O | 72 | 401 |
| COC(=O)c1c(-c2ccncc2)c(-c2ccc(F)cc2)c(C#CCCN2CCOCC2)n1C | -4 | 32 |
| COC(=O)c1c(-c2ccc(F)cc2)c(-c2ccncc2)c(NCc2ccncc2)n1C | -22 | 145 |
| CCN1CCN(c2c(-c3ccncc3)c(-c3ccc(F)cc3)c(C(=O)OC)n2C)CC1 | 67.8 | 135 |
| COC(=O)c1c(-c2ccc(F)cc2)c(-c2ccncc2)c(N2CCN(c3cccc(C(C)=O)c3)CC2)n1C | -21 | 8 |
| COC(=O)c1c(-c2ccc(F)cc2)c(-c2ccncc2)c(C#CCN2CCN(C)CC2)n1C | 57 | 7.7 |
| CC(=O)c1c(-c2ccc(F)cc2)c(-c2ccncc2)c(N2CCN(C)CC2)n1C | 40 | 370 |
| CCOC(=O)N1CCN(c2c(-c3ccncc3)c(-c3ccc(F)cc3)c(C(=O)OC)n2C)CC1 | 8 | 30 |
| COC(=O)c1c(-c2ccc(F)cc2)c(-c2ccncc2)c(N2CCN(CC3CC3)CC2)n1C | 66.3 | 269 |
| O=C(NCc1ccccc1)c1[nH]cc(-c2ccc(F)cc2)c1-c1ccncc1 | -60 | 14 |
| COC(=O)c1c(-c2ccncc2)c(-c2ccc(F)cc2)c(NCCN2CCOCC2)n1C | 91 | 10000 |
| COC(=O)C1CCn2cc(-c3ccncc3)c(-c3ccc(F)cc3)c2C1=O (stereo not given) | -9 | 326 |
| COc1ccc(CNCc2[nH]cc(-c3ccncc3)c2-c2ccc(F)cc2)cc1 | -30 | 190 |
| CCOC(=O)c1[nH]cc(-c2ccncc2)c1-c1cc(F)cc(F)c1 | -14 | 114 |
| Cn1cc(-c2ccc(F)cc2)c(-c2ccncc2)c1CO | 65 | 169 |
| COC(=O)c1c(-c2ccc(F)cc2)c(-c2ccncc2)c(Nc2cccnc2)n1C | -10.5 | 57 |
| COC(=O)c1c(-c2ccc(F)cc2)c(-c2ccncc2)c(Nc2ccc(N3CCOCC3)cc2)n1C | 29 | 1560 |
| CCNC(=O)N1CCN(c2c(-c3ccncc3)c(-c3ccc(F)cc3)c(C(=O)OC)n2C)CC1 | -38 | 2920 |
| COC(=O)c1c(-c2ccc(F)cc2)c(-c2ccncc2)c(N=C(c2ccccc2)c2ccccc2)n1C | -49 | 52 |
| COC(=O)c1c(-c2ccc(F)cc2)c(-c2ccncc2)c(NCCN2CCCCC2)n1C | -36 | 92 |
| CNC(=O)c1c(-c2ccc(F)cc2)c(-c2ccncc2)c(Br)n1C | 53 | 543 |
| O=C1c2c(-c3ccncc3)c(-c3ccc(F)cc3)cn2C(=O)N1Cc1ccccc1 | 51 | 26 |
| COC(=O)c1c(-c2ccc(F)cc2)c(-c2ccncc2)c(N2CCN(C(C)=O)CC2)n1C | 57 | 1530 |
| O=C1CCCn2c(NCCN3CCOCC3)c(-c3ccncc3)c(-c3ccc(F)cc3)c21 | 51 | 2560 |
| CCn1cc(-c2ccncc2)c(-c2ccc(F)cc2)c1CO | 48 | 70 |

Source: the Kinase Knowledgebase extract (Sharma et al. 2016)
